Data on 26 compounds can be found in US8735414B2 (priority 2009, dated 2014).

Molecules are shown by their SMILES. A value given as a limit tells only on which side of the number the result lay.

Series [1] has as its system bicistronic HCV replicon (replicon RNA, GenBank Accession No. AJ242654). The experiment in a line: HCV Replicon Assay. The following applies: Hepatitis C virus, 72 h, read-out: Replicon IC50. The format is cell-based. In general terms: In antiviral work, replicon cells carry a viral genome segment that copies itself.

The compound `CC(C)n1c(-c2ncc(S(=O)(=O)N[C@@H](C)C3CC3)cn2)c(C#N)c2cc(F)ccc21` [compound 529, 2-[3-cyano-5-fluoro-1-(propan-2-yl)-1H-indol-2-yl]-N-[(1S)-1-cyclopropylethyl]pyrimidine-5-sulfonamide] came in with a melting point of 176 to 179 °C. In series [1], the IC50 was less than 500 nM.
For `C[C@H](NS(=O)(=O)c1cnc(-c2c(C#N)c3cc(F)ccc3n2C2CCCC2)nc1)C1CC1` [compound 530, 2-(3-cyano-1-cyclopentyl-5-fluoro-1H-indol-2-yl)-N-[(1S)-1-cyclopropylethyl]pyrimidine-5-sulfonamide], the melting point is 184 to 186 °C. For the same compound, the half-maximal inhibitory concentration (IC50) in series [1] is less than 500 nM.
Take `C[C@H](NS(=O)(=O)c1cnc(-c2c(C#N)c3cc(F)ccc3n2CC2CC2)nc1)C1CC1` [compound 531, 2-[3-cyano-1-(cyclopropylmethyl)-5-fluoro-1H-indol-2-yl]-N-[(1S)-1-cyclopropylethyl]pyrimidine-5-sulfonamide]: the melting point was 184 to 188 °C. Moreover, the concentration for half-maximal inhibition (IC50) in series [1] was less than 500 nM.
Turning to `Cc1c(F)cc2c(C#N)c(-c3ccc(S(=O)(=O)N[C@@H](C)C(F)(F)F)cn3)n(C3CCC3)c2c1F` [compound 532, 6-(3-cyano-1-cyclobutyl-5,7-difluoro-6-methyl-1H-indol-2-yl)-N-[(2S)-1,1,1-trifluoropropan-2-yl]pyridine-3-sulfonamide], the melting point fell in the range of 186 to 191 °C. In addition, in series [1], the IC50 was less than 500 nM.
As to `Cc1c(F)cc2c(C#N)c(-c3ccc(S(=O)(=O)NC(CF)CF)cn3)n(C3CCC3)c2c1F` [compound 533, 6-(3-cyano-1-cyclobutyl-5,7-difluoro-6-methyl-1H-indol-2-yl)-N-(1,3-difluoropropan-2-yl)pyridine-3-sulfonamide], the melting point lay within 158 to 170 °C. For the same compound, the half-maximal inhibitory concentration (IC50) in series [1] is less than 500 nM.
The like results for `C[C@@H](NS(=O)(=O)c1ccc(-c2c(C#N)c3ccc(OC(F)F)cc3n2-c2ccccn2)nc1)C(F)(F)F` [compound 534, 6-[3-cyano-6-(difluoromethoxy)-1-(pyridin-2-yl)-1H-indol-2-yl]-N-[(2R)-1,1,1-trifluoropropan-2-yl]pyridine-3-sulfonamide] were, in that order, 159 to 161 °C and less than 500 nM.
On to `N#Cc1c(-c2ncc(S(=O)(=O)NC(CF)CF)cn2)n(C2CCCC2)c2ccc(C(F)F)cc12` [compound 536, 2-[3-cyano-1-cyclopentyl-5-(difluoromethyl)-1H-indol-2-yl]-N-(1,3-difluoropropan-2-yl)pyrimidine-5-sulfonamide], for which the melting point was 176 to 177 °C. Also, the 50% inhibitory concentration (IC50) in series [1] was less than 500 nM.
In the case of `C[C@H](NS(=O)(=O)c1ccc(-c2c(C#N)c3cc(C(F)F)ccc3n2C2CCCC2)nc1)C(F)(F)F` [compound 537, 6-[3-cyano-1-cyclopentyl-5-(difluoromethyl)-1H-indol-2-yl]-N-[(2S)-1,1,1-trifluoropropan-2-yl]pyridine-3-sulfonamide], the melting point lay in the range of 187 to 188 °C. For the same compound, the IC50 in series [1] is less than 500 nM.
`C[C@@H](NS(=O)(=O)c1ccc(-c2c(C#N)c3cc(C(F)F)ccc3n2C2CCCC2)nc1)C(F)(F)F` [compound 538, 6-[3-cyano-1-cyclopentyl-5-(difluoromethyl)-1H-indol-2-yl]-N-[(2R)-1,1,1-trifluoropropan-2-yl]pyridine-3-sulfonamide] came in with a melting point of 186 to 188 °C. For the same compound, the concentration for half-maximal inhibition (IC50) in series [1] was less than 500 nM.
Compound `Cc1cc2c(cc1F)c(C#N)c(-c1ccc(S(=O)(=O)NC(C)(C)C(F)(F)F)cn1)n2C1CCC1` [compound 539, 6-(3-cyano-1-cyclobutyl-5-fluoro-6-methyl-1H-indol-2-yl)-N-(1,1,1-trifluoro-2-methylpropan-2-yl)pyridine-3-sulfonamide] returned a melting point of 238 to 243 °C. Moreover, in series [1], the IC50 is less than 500 nM.
Compound `Cc1cc2c(cc1F)c(C#N)c(-c1ccc(S(=O)(=O)NC(CF)CF)cn1)n2-c1ccccn1` [compound 540, 6-[3-cyano-5-fluoro-6-methyl-1-(pyridin-2-yl)-1H-indol-2-yl]-N-(1,3-difluoropropan-2-yl)pyridine-3-sulfonamide] came in with a melting point of 233 to 236 °C. Also, in series [1], the IC50 is less than 500 nM.
Consider `Cc1cc2c(cc1F)c(C#N)c(-c1ccc(S(=O)(=O)N[C@@H](C)C(F)(F)F)cn1)n2-c1ccccn1` [compound 541, 6-[3-cyano-5-fluoro-6-methyl-1-(pyridin-2-yl)-1H-indol-2-yl]-N-[(2S)-1,1,1-trifluoropropan-2-yl]pyridine-3-sulfonamide], for which the melting point fell in the range of 160 to 164 °C. Moreover, the IC50 in series [1] was less than 500 nM.
In the same order, the values of `N#Cc1c(-c2ccc(S(=O)(=O)NC(CF)CF)cn2)n(C2CCC2)c2cc(OC(F)F)c(F)cc12` [compound 542, 6-[3-cyano-1-cyclobutyl-6-(difluoromethoxy)-5-fluoro-1H-indol-2-yl]-N-(1,3-difluoropropan-2-yl)pyridine-3-sulfonamide] are 160 to 164 °C and less than 500 nM.
Turning to `C[C@H](NS(=O)(=O)c1cnc(-c2c(C#N)c3cc(F)ccc3n2C2CCC2)nc1)C1CC1` [compound 544, 2-(3-cyano-1-cyclobutyl-5-fluoro-1H-indol-2-yl)-N-[(1S)-1-cyclopropylethyl]pyrimidine-5-sulfonamide], the melting point lay in the range of 178 to 181 °C. Also, the IC50 in series [1] is less than 500 nM.
The like results for `Cc1ccc2c(c1)c(C#N)c(-c1ncc(S(=O)(=O)N[C@@H](C)C3CC3)cn1)n2C1CCC1` [compound 545, 2-(3-cyano-1-cyclobutyl-5-methyl-1H-indol-2-yl)-N-[(1S)-1-cyclopropylethyl]pyrimidine-5-sulfonamide] were, in that order, 168 to 171 °C and less than 500 nM.
In the same order, the values of `CC(C)n1c(-c2ncc(S(=O)(=O)N[C@@H](C)C(F)(F)F)cn2)c(C#N)c2cc(F)ccc21` [compound 546, 2-[3-cyano-5-fluoro-1-(propan-2-yl)-1H-indol-2-yl]-N-[(2S)-1,1,1-trifluoropropan-2-yl]pyrimidine-5-sulfonamide] are 172 to 176 °C and 500 to 2000 nM.
Compound `C[C@H](NS(=O)(=O)c1cnc(-c2c(C#N)c3cc(F)ccc3n2C2CCCC2)nc1)C(F)(F)F` [compound 547, 2-(3-cyano-1-cyclopentyl-5-fluoro-1H-indol-2-yl)-N-[(2S)-1,1,1-trifluoropropan-2-yl]pyrimidine-5-sulfonamide] came in with a melting point of 214 to 218 °C. In series [1], the IC50 was less than 500 nM.
Regarding `C[C@H](NS(=O)(=O)c1cnc(-c2c(C#N)c3cc(F)ccc3n2CC2CC2)nc1)C(F)(F)F` [compound 548, 2-[3-cyano-1-(cyclopropylmethyl)-5-fluoro-1H-indol-2-yl]-N-[(2S)-1,1,1-trifluoropropan-2-yl]pyrimidine-5-sulfonamide], the melting point was 175 to 180 °C. Further, the half-maximal inhibitory concentration (IC50) in series [1] is 500 to 2000 nM.
As for `COc1ccc2c(c1)c(C#N)c(-c1ccc(S(=O)(=O)NC(CF)CF)cn1)n2C1CCC1` [compound 550, 6-(3-cyano-1-cyclobutyl-5-methoxy-1H-indol-2-yl)-N-(1,3-difluoropropan-2-yl)pyridine-3-sulfonamide], the melting point was 149 to 150 °C. Also, in series [1], the IC50 is less than 500 nM.
For `COc1ccc2c(c1)c(C#N)c(-c1ncc(S(=O)(=O)NC(CF)CF)cn1)n2C1CCC1` [compound 551, 2-(3-cyano-1-cyclobutyl-5-methoxy-1H-indol-2-yl)-N-(1,3-difluoropropan-2-yl)pyrimidine-5-sulfonamide], the melting point was 217 to 219 °C. In addition, the IC50 in series [1] was less than 500 nM.
The compound `C[C@H](NS(=O)(=O)c1ccc(-c2c(C#N)c3ccc(OC(F)F)cc3n2-c2ccccc2)nc1)C(F)(F)F` [compound 553, 6-[3-cyano-6-(difluoromethoxy)-1-phenyl-1H-indol-2-yl]-N-[(2S)-1,1,1-trifluoropropan-2-yl]pyridine-3-sulfonamide] showed a melting point of 209 to 211 °C. Further, the IC50 in series [1] is less than 500 nM.
As to `C[C@@H](NS(=O)(=O)c1ccc(-c2c(C#N)c3ccc(OC(F)F)cc3n2-c2ccccc2)nc1)C(F)(F)F` [compound 554, 6-[3-cyano-6-(difluoromethoxy)-1-phenyl-1H-indol-2-yl]-N-[(2R)-1,1,1-trifluoropropan-2-yl]pyridine-3-sulfonamide], the melting point is 212 to 213 °C. Further, in series [1], the IC50 was less than 500 nM.
Take `Cc1c(F)cc2c(c1F)c(C#N)c(-c1ccc(S(=O)(=O)N[C@@H](C)C(F)(F)F)cn1)n2C1CCC1` [compound 555, 6-(3-cyano-1-cyclobutyl-4,6-difluoro-5-methyl-1H-indol-2-yl)-N-[(2S)-1,1,1-trifluoropropan-2-yl]pyridine-3-sulfonamide]: the melting point fell in the range of 181 to 186 °C. The IC50 in series [1] is less than 500 nM.
Compound `Cc1c(F)cc2c(c1F)c(C#N)c(-c1ccc(S(=O)(=O)NC(CF)CF)cn1)n2C1CCC1` [compound 556, 6-(3-cyano-1-cyclobutyl-4,6-difluoro-5-methyl-1H-indol-2-yl)-N-(1,3-difluoropropan-2-yl)pyridine-3-sulfonamide] showed a melting point of 207 to 212 °C. The IC50 in series [1] was less than 500 nM.
In turn, `Cc1ccc2c(C#N)c(-c3ncc(S(=O)(=O)NC(CF)CF)cn3)n(C3CCC3)c2c1F` [compound 557, 2-(3-cyano-1-cyclobutyl-7-fluoro-6-methyl-1H-indol-2-yl)-N-(1,3-difluoropropan-2-yl)pyrimidine-5-sulfonamide] displayed a melting point of 191 to 198 °C. In addition, the IC50 in series [1] is less than 500 nM.
In the same order, the values of `Cc1c(F)cc2c(c1F)c(C#N)c(-c1ccc(S(=O)(=O)NC(CF)CF)cn1)n2C1CCCC1` [compound 558, 6-(3-cyano-1-cyclopentyl-4,6-difluoro-5-methyl-1H-indol-2-yl)-N-(1,3-difluoropropan-2-yl)pyridine-3-sulfonamide] are 214 to 219 °C and less than 500 nM.

A word on the IC50: it is the concentration needed to halve the response being measured. The melting point is the temperature, or range, at which the solid turns liquid.
